Experiment: in vitro
Conditions: human, hela cells, % viability

| SMILES | viability at 28.5 h, 10 µM [%] |
| --- | --- |
| CC(C)(C)OCc1[nH]nc(O)c1Cc1c(Cl)cccc1Cl [CBK089569] | 106 |
| O=C(NCc1ccc2c(c1)CCN2C(=O)c1ccncc1)c1cccc(F)c1 [CBK288586] | 102 |
| O=C(c1cc[nH]n1)N1CCOCC1 [CBK027868] | 89.2 |
| CC(C)(C)c1ccnc(N[C@H]2CO[C@H]3[C@@H]2OC[C@@H]3NS(=O)(=O)Cc2ccccc2)n1 [CBK289521] | 91.4 |
| O=C(CSc1nc(-c2ccccc2)cc(-c2ccccc2)n1)Nc1cccc([N+](=O)[O-])c1 [CBK263896] | 97.9 |
| CC(=O)[C@H]1CC[C@H]2[C@@H]3CC[C@H]4CC5(CC[C@]4(C)[C@H]3CC[C@]12C)N=C1C=C(C(C)(C)C)ON1C1C=CCC15 (stereo partly drawn) [CBK303246] | 42.9 |
| COc1ccccc1CN(Cc1cccnc1)C(=O)CCC(F)(F)F [CBK307713] | 92.3 |
| COCc1nc(CN2CCNC(=O)C2c2ccccc2C(F)(F)F)no1 (stereo not drawn) [CBK304157] | 87.2 |
| O=C(NCc1ccc(-c2csnn2)cc1)c1ccc(Oc2ccccc2)cc1 [CBK149300] | 108 |
| O=C(Nc1ccc(F)cc1)c1ccccc1NS(=O)(=O)c1ccc(C(F)(F)F)cc1[N+](=O)[O-] [CBK045439] | 108 |
| Cc1cccc(C(C)CNC(=O)N2CCC(Cc3cnn(C)c3)C2)c1 (stereo not drawn) [CBK305301] | 96.9 |
| CNS(=O)(=O)c1cccc(C(C)NC(=O)N2CCSCC2)c1 (stereo not drawn) [CBK305825] | 95.1 |
| CC(=O)c1c[nH]c(=O)[nH]c1=O [CBK012093] | 115 |
| COc1ccc(NC2=NC(=O)CC(C(=O)Nc3ccc(C)c(C)c3)N2)cc1 (stereo not drawn) [CBK269359] | 104 |
| CC(=O)Nc1ccc(-c2csc(NC(=O)NS(=O)(=O)c3ccc(C)cc3)n2)cc1 [CBK297084] | 107 |
| O=C(Nc1ccc(Cl)nc1)C(F)(F)F [CBK091339] | 101 |
| CCOC(=O)N1CCC(NS(=O)(=O)c2ccc(Cl)c(Cl)c2Cl)CC1 [CBK045471] | 96.4 |
| CC(Oc1ccccc1)C(=O)Nc1c[nH]c(=O)[nH]c1=O (stereo not drawn) [CBK266524] | 72.3 |
| CCOC(=O)c1ccc(N2C(=O)CC(N3CCN(c4ccc(S(C)(=O)=O)cc4)CC3)C2=O)cc1 (stereo not drawn) [CBK268721] | 103 |
| NC(=O)C1(Cc2ccccc2-c2cccc(F)c2)CCN(C(=O)c2cccc(F)c2)CC1 [CBK285693] | 96.8 |
| CCCC/C=C/c1cncc(N2CCN(c3ccccc3C#N)CC2)n1 [CBK037369] | 93.6 |
| CNC(=O)c1ccc(OC)c(S(=O)(=O)NC)c1 [CBK270153] | 88.9 |

| SMILES | viability at 28.5 h, 10 µM [%] |
| --- | --- |
| O=C(CN1CCC(c2ccc(F)cc2)CC1)N1CCCC1 [CBK283502] | 98.7 |
| Cn1c(=O)n(CC#N)c2ccccc21 [CBK025636] | 96.9 |
| COc1ncc(C(=O)NCc2cccnc2N(C)C2CCCCC2)cn1 [CBK306870] | 91.8 |
| Cc1cccc(OCc2nnc(SCC(=O)Nc3cc(C(F)(F)F)ccc3Cl)o2)c1C [CBK267204] | 85.3 |
| COc1ccc(C(C)C)cc1-c1cnc2[nH]c(=O)n([C@H](C)c3ccccc3)c2n1 [CBK064181] | 87.3 |
| CSCCCNC(=O)c1cnn2c(C)c(Cc3cccnc3)c(C)nc12 [CBK162164] | 104 |
| CCCN1CCC(=NNC(=O)c2c[nH]c3ccccc23)CC1 [CBK262597] | 95.3 |
| O=C(CN1CCC(C(=O)c2ccc(F)cc2)CC1)c1ccsc1 [CBK149137] | 95.5 |
| CCN(C(=O)Nc1cccnc1Oc1ccc(F)cc1)C1CCOCC1 [CBK306535] | 89.5 |
| O=C(CN1CCCCC1Cn1cccn1)NCc1ccccn1 (stereo not drawn) [CBK306146] | 84 |
| CS(=O)(=O)c1ccc(-c2ccc3c(c2)CN(C2CCN(C(=O)c4ccccc4)CC2)CCO3)cc1 [CBK169265] | 103 |
| CSc1ccc(-c2cn3ccnc3c(NCCc3ccncc3)n2)cc1 [CBK066479] | 102 |
| O=C(CN1CCN(c2cc(-c3ccc4ccccc4c3)ncn2)CC1)N1CCCC1 [CBK091064] | 104 |
| Cc1nonc1CN(C)C(=O)C1CC2C=CC1C21CC1 (stereo not drawn) [CBK282076] | 97.2 |
| CC(C)(C)OC(=O)NCc1ccc(-c2nnc(CC(=O)O)o2)cc1 [CBK169899D] | 96.5 |
| O=C(CO)N1CC2(CCN(CCS(=O)(=O)c3ccccc3)CC2)c2ccccc21 [CBK131505] | 97.9 |
| COc1ccc(CCC(=O)Nc2ccccc2N2CCCNCC2)cc1 [CBK024286T] | 101 |
| Cc1ccc(C)c(NC(=O)c2sc3cc(C)ccc3c2Cl)c1 [CBK263648] | 90.3 |
| COc1ccc(-c2cc(-c3ccccc3)c(C#N)c(S(=O)(=O)Cc3ccccc3)n2)cc1 [CBK265949] | 89.6 |
| CCCCCCOC(=O)c1ccc2c(c1)C(=O)N(c1cccc(N)c1)C2=O [CBK157034] | 106 |
| N=c1n(CCCOc2ccc(Br)cc2)c2ccccc2n1CC(N)=O [CBK268786C] | 86.9 |
| CCOC(=O)CNC(=S)N[C@H]1CC[C@@]2(c3cccnc3)CCN(Cc3ccccc3)[C@H]2C1 [CBK028453] | 115 |

| SMILES | viability at 28.5 h, 10 µM [%] |
| --- | --- |
| Cc1c(C(=O)O)sc(S(=O)(=O)N2CCN(C(=O)CCC3CCCC3)CC2)c1C(=O)O [CBK297121] | 117 |
| CCN(CC)Cn1nc(Nc2ccccc2)n(-c2ccccc2)c1=S [CBK261672] | 87.6 |
| Cc1oc(-c2ccccc2)cc1C(=O)Nc1cc2ccccc2c(N2CCNCC2)n1 [CBK038938T] | 104 |
| CC(C)C(=O)N1C[C@H]2NC(=O)c3ccccc3C(=O)[C@@]2(C)C1 [CBK281658] | 103 |
| CN1CCC(=NNC(=O)c2ccc(N(Cc3ccccc3)S(C)(=O)=O)cc2)CC1 [CBK262742] | 82.4 |
| COc1ccc(/N=c2/cc(C)[nH]c3ncnn23)cc1 [CBK287893] | 91.1 |
| COc1ccc(N2C(=O)c3ccccc3NC2c2cccc(OCC(=O)Nc3ccccc3)c2)cc1 (stereo not drawn) [CBK265406] | 108 |
| O=C(N[C@H]1CO[C@H]2[C@@H]1OC[C@@H]2n1cc(-c2ccccn2)nn1)c1ccc(C(F)(F)F)cc1 [CBK289507] | 89.7 |
| Cc1ccc(S(=O)(=O)NCCOc2ccccc2)c(C)c1NS(C)(=O)=O [CBK268210] | 92.9 |
| O=C(c1ccc(OC(F)(F)F)cc1)N1CCN(c2nnnn2-c2ccccc2)CC1 [CBK296622] | 93.5 |
| NC1=C2NC(c3cccc(C(=O)O)c3)=NN2N(c2ccccc2)N1 [CBK093663] | 98.7 |
| Cc1cccc(OCCNC(=O)CSc2n[nH]c(=O)n2C2CC2)c1 [CBK295599] | 94.2 |
| CC(C)(C)OC(=O)N1CCC2(CC1)NC(=O)c1cc(-c3cccc4ncccc34)ccc1O2 [CBK083674] | 109 |
| NS(=O)(=O)c1ccc(NCc2cc(Cl)ccc2OCc2ccc(F)cc2)cc1 [CBK268196] | 87.2 |
| Cn1cc(C2CCCCCN2C(=O)c2nn(C)cc2Cl)cn1 (stereo not drawn) [CBK284972] | 93.2 |
| COc1cccn(CC(=O)N2CCc3sc(C(=O)N(C)C)cc3C2)c1=O [CBK307665] | 90.5 |
| O=C(CN1Cc2ccccc2C1)N1CCCC1c1nc2ccccc2[nH]1 (stereo not drawn) [CBK283710] | 87.9 |
| COCc1ccsc1C(=O)Nc1ncn(CC(=O)N2CCCCCC2)n1 [CBK304160] | 94.9 |
| O=C(O)CCCCCNC(=S)Nc1cccc(Cl)c1 [CBK288446] | 88.1 |
| COc1ccc(-n2ccn(C(=O)CCC3CCCC3)c2=O)cc1 [CBK106595] | 90.4 |
| O=c1[nH]nc2c3c(nc(-c4ccncc4)n12)CCCC3 [CBK288029] | 109 |
| O=[N+]([O-])c1cc(S(=O)(=O)Nc2cccc(-c3cnco3)c2)ccc1Cl [CBK067125] | 95.7 |

| SMILES | viability at 28.5 h, 10 µM [%] |
| --- | --- |
| O=C(c1ccc2c(c1)OCCO2)N1CCN(C(=O)c2ccco2)CC1 [CBK144480] | 101 |
| Cc1cc(Cl)cc(Cl)c1S(=O)(=O)Nc1nc(-c2cccnc2)cs1 [CBK200035] | 105 |
| COc1ccc(N2CCN(c3nc(N4CCOCC4)nc(N4CCOCC4)n3)CC2)cc1 [CBK264166] | 100 |
| CCOC(=O)CC(=O)CSc1nc(N)c2c3c(sc2n1)CCCC3 [CBK264942] | 120 |
| Nc1nccnc1C(=O)Oc1ccccc1 [CBK090311] | 88.1 |
| Cc1ccc(-c2nn(CCC#N)cc2C(=O)N2CCOCC2)cc1C [CBK305940] | 96.7 |
| CCN(Cc1ccc(C#N)cc1F)C(=O)Nc1cnn(CC)c1 [CBK305702] | 93.1 |
| CC(C)[C@H](NC(=O)Cc1n[nH]c(=O)c2ccccc12)C(=O)O [CBK286607] | 95.2 |
| Clc1ccccc1-c1nccnc1NCc1ccncc1 [CBK037472] | 89.2 |
| COc1ccc(CN2C(=O)CS(=O)(=O)CC2=O)cc1OC [CBK011127] | 86.4 |
| COc1nn(C)c(CO)c1Cc1c(Cl)cccc1Cl [CBK092285T] | 94.2 |
| O=C1NC2=C(C(=O)N(CCN3CCCC3)C2)C(c2ccccc2)N1 (stereo not drawn) [CBK283493] | 103 |
| CCOCCCNC(=O)c1cnn2c(C)c(CC)c(C)nc12 [CBK162129] | 93.7 |
| O=C(O)[C@H]1CN(C(=O)c2cccs2)C[C@@H]1c1ccc(F)cc1 [CBK283734] | 98.1 |
| O=c1[nH]nc2cc(NCc3ccc(Cl)cc3)ncn12 [CBK288479] | 114 |
| Nc1nc(SCc2nnc(S)n2-c2ccccc2)nc2sc3c(c12)CCC3 [CBK301216K] | 83.1 |
| O=C(CCc1ccccc1)NC(c1cccc([N+](=O)[O-])c1)c1c(O)ccc2ccccc12 (stereo not drawn) [CBK265278] | 109 |
| CC(C)(C)Cc1nnc(N)s1 [CBK050161] | 92.6 |
| O=C(O)/C=C/c1ccccc1OCC(=O)NC1CCCCC1 [CBK286900] | 99.8 |
| CC(C)C[C@H](NC(=O)N1CC(=O)Nc2ccccc21)C(=O)O [CBK286589] | 94.8 |
| CCN(CCO)C(=O)c1cccc(-c2cnn(C(F)F)c2C)c1 [CBK307519] | 95.5 |
